Experiments:
apple powdery mildew [1] = test: Example 1: foliar applications on jonagold apple trees, control of apple powdery mildew; format: in vivo, Podosphaera leucotricha; conditions: jonagold trees about 9 years old; five foliar sprays at 14 day intervals, about 300 L/ha; incidence of disease observed about a week after last treatment; rates (own compound 50 g active/ha, silicone surfactant 584 mL/ha, Regulaid surfactant 0.125% v/v, methylated seed oil 0.06% v/v, kresoxim-methyl 224, penthiopyrad 234 g active/ha)
Source text: Applicant conducted the following study to determine the effect of 3-(difluoromethyl)-1-methyl-N-[(3R)-1,1,3-trimethyl-2,3-dihydroinden-4-yl]pyrazole-4-carboxamide foliar applications on fungal infections in apple trees.
A 40% suspension concentrate formulation was used as the source of 3-(difluoromethyl)-1-methyl-N-[(3R)-1,1,3-trimethyl-2,3-dihydroinden-4-yl]pyrazole-4-carboxamide (available from Sumitomo Chemical Company, Tokyo, Japan).
Regulaid® is a nonionic surfactant and was used as the source of the 2-butoxyethanol, poloxalene, and monopropylene glycol surfactant (Regulaid is available from and a registered trademark of KALO, Inc). Regulaid® contains about 90.6% of 2-butoxyethanol, poloxalene, and monopropylene glycol.
Sovran® was used as the source of kresoxim-methyl (available from and a registered trademark of BASF Corporation).
Fontelis® was used as the source of penthiopyrad (available from and a registered trademark of E.I. du Pont).
Slygard® 309 was used as the source of a mixture of 3-(3-hydroxypropyl)-heptamethyltrisiloxane-ethoxylated acetate, polyethylene glycol monallyl acetate and polyethylene glycol diacetate silicone containing surfactant (available from and a registered trademark of Wilbur-Ellis Company). Slygard® 309 contains 100% of the mixture of surfactants.

apple powdery mildew [2] = test: Example 2: foliar applications on jonagold apple trees, incidence and severity of apple powdery mildew; format: in vivo, Podosphaera leucotricha
Description: Applicant conducted the following study to determine the effect of a 3-(difluoromethyl)-1-methyl-N-[(3R)-1,1,3-trimethyl-2,3-dihydroinden-4-yl]pyrazole-4-carboxamide foliar applications on fungal infections in apple trees.
(§1) 30, 2015. […] Pest incidence, pest severity, and fruit finish were measured.
SYL-COAT™ was used as the source of polyether-polymethylsiloxane-copolymer and polyether silicone containing surfactant (available from Wilbur-Ellis Company).

Apples, jonagold variety = test: Example 2: fruit finish quality of treated apple trees; format: in vivo; conditions: 80 days after 7th treatment
Description: as §1

[3] = 8 days after 4th treatment, rates (own compound 50 g/ha, penthiopyrad 234 g/ha, kresoxim-methyl 224 g/ha, silicone surfactant 8 fl oz/a, Regulaid surfactant 0.125% v/v)

For `CO/N=C(/C(=O)OC)c1ccccc1COc1ccccc1C` [Kresoxim-methyl, kresoxim-methyl], the “% Control” value (apple powdery mildew [1]) was 63%, the “Incidence of Apple Powdery Mildew (%)” value (apple powdery mildew [2]; 2 days after 5th treatment) was 3.4874 cd % and the “Severity of Apple Powdery Mildew (%)” value (apple powdery mildew [2]; 2 days after 5th treatment) was 0.8465 cd %. The “Incidence of Apple Powdery Mildew (%)” value (apple powdery mildew [2]; 3 days after 6th treatment) was 12.0332 cd %, the “Severity of Apple Powdery Mildew (%)” value (apple powdery mildew [2]; 3 days after 6th treatment) was 2.9013 c % and the “Incidence of Apple Powdery Mildew (%)” value (apple powdery mildew [2]; [3]) was 8.7500 bc %. The “Severity of Apple Powdery Mildew (%)” value (apple powdery mildew [2]; 9 days after 7th treatment) was 9.0294 bc % and the “Fruit Finish Quality (0 lowest-10 highest)” value (“Fruit Finish Quality” below) (Apples, jonagold variety) was 8.2500 b.
In the case of `C[C@@H]1CC(C)(C)c2cccc(NC(=O)c3cn(C)nc3C(F)F)c21` [3-(Difluoromethyl)-1-methyl-N-[(3R)-1,1,3-trimethyl-2,3-dihydroinden-4-yl]pyrazole-4-carboxamide], the “% Control” value (apple powdery mildew [1]) is reported as 67%, the “Incidence of Apple Powdery Mildew (%)” value (apple powdery mildew [2]; 2 days after 5th treatment) is reported as 11.5303 bc % and the “Severity of Apple Powdery Mildew (%)” value (apple powdery mildew [2]; 2 days after 5th treatment) is reported as 1.6836 bc %. For the same compound, the “Incidence of Apple Powdery Mildew (%)” value (apple powdery mildew [2]; 3 days after 6th treatment) was 20.4938 c %, the “Severity of Apple Powdery Mildew (%)” value (apple powdery mildew [2]; 3 days after 6th treatment) was 4.4196 c % and the “Incidence of Apple Powdery Mildew (%)” value (apple powdery mildew [2]; [3]) was 13.0000 b %. For the same compound, the “Severity of Apple Powdery Mildew (%)” value (apple powdery mildew [2]; 9 days after 7th treatment) was 11.5331 bc % and the “Fruit Finish Quality” value (Apples, jonagold variety) was 7.5000 b.
For `CC(C)CC(C)c1sccc1NC(=O)c1cn(C)nc1C(F)(F)F` (stereo not drawn) [Penthiopyrad, penthiopyrad], the “% Control” value (apple powdery mildew [1]) was 71%, the “Incidence of Apple Powdery Mildew (%)” value (apple powdery mildew [2]; 2 days after 5th treatment) was 1.4675 cd % and the “Severity of Apple Powdery Mildew (%)” value (apple powdery mildew [2]; 2 days after 5th treatment) was 0.6379 cd %. For the same compound, the “Incidence of Apple Powdery Mildew (%)” value (apple powdery mildew [2]; 3 days after 6th treatment) was 2.5965 ef %, the “Severity of Apple Powdery Mildew (%)” value (apple powdery mildew [2]; 3 days after 6th treatment) was 0.7932 d % and the “Incidence of Apple Powdery Mildew (%)” value (apple powdery mildew [2]; [3]) was 7.5000 bc %. For the same compound, the “Severity of Apple Powdery Mildew (%)” value (apple powdery mildew [2]; 9 days after 7th treatment) was 7.8439 c % and the “Fruit Finish Quality” value (Apples, jonagold variety) was 8.0000 b.

Source: US9615579B2, “Compositions for powdery mildew control and methods of their use” (Valent U.S.A., Corporation, priority 2015, dated 2017)
